The target in data set [1] is HIV protease enzyme (Human immunodeficiency virus type 1 group M subtype B, UniProt P04585). Put plainly: IC50s measured in vitro against HIV protease enzyme at pH 4.7 and 6.2.
The subject of data set [2] is HIV infected lymphocyte derived CEM cells. Put plainly: Cellular Infection Assay, XTT cytopathic procedure in CEM cells (antiviral efficacy). The format is cell-based. On the procedure: Compounds were tested in lymphocyte derived CEM cells using the XTT cytopathic procedures and were performed at Southern Research Institute (Buckheit, et al., Antiviral Res., 1993;21:247; see also Weislow, et al., J. Nat. Cancer Inst., 1989;81:577). Compound concentrations were 0.32, 1, 3.2, 10, 32, and 100 μM. The EC50 represents the concentration of agent, which reduces HIV cytopathic effects 50% relative to untreated control. Cellular toxicity of the agents are estimated from the TC50 which represents the concentration of the agent which inhibits 50% of the viability of uninfected cells.
EC50 indicates the concentration of the drug which provide 50% protection against HIV.
On the technique in general: Tetrazolium assays rely on reduction of a dye to a coloured formazan, in cell work by metabolically active cells.

Data set [3] has as its target T1, Recombinant HIV-1 protease (Human immunodeficiency virus type 1 group M subtype B, UniProt P04585).
T1 construct: Recombinant HIV-1 protease (>96% purity); purchased Bachem Bioscience, Inc. (King of Prussia, Pa.)
As to the kind of experiment: HIV Protease Assay (Ki). The following applies: pH 6.2, 37° C., 40 μM substrate III. It is filed as biochemical. As for the experimental part:
Recombinant HIV-1 protease (>96% purity) and HIV protease substrate III (the undecapeptide H-His-Lys-Ala-Arg-Val-Leu-Nph-Glu-Ala-Nle-Ser-NH2, 97% purity) were purchased from Bachem Bioscience, Inc. (King of Prussia, Pa.).
The methods employed follow the procedures of Tummino, et al., Archives of Biochemistry and Biophysics, 1995;316:523). […] (total volume, […]). […] The final inhibitor concentrations used were 0 (0.1, 0.2, in some experiments), 0.5, 1, 2, 5, 10, 20, 50, and 100 μM. The solution was mixed, incubated for 5 minutes and the reaction quenched by addition of trifluoracetic acid, 2% final. The (leu-p-nitro-phe) bond of the substrate is cleaved by the enzyme and substrate and products separated by reverse-phase HPLC (high pressure liquid chromatography). Absorbance was measured at 220 nm, peak areas determined, and percentage conversion to product used to calculate percentage control (=[% conversion (+inhibitor)/% conversion (−inhibitor)]×100).
Ki means inhibitory constant; it approximately the equilibrium binding constant for the binding of the inhibitor to the free enzyme.

For data set [4], the system named is uninfected CEM cells. As to the kind of experiment: Cellular toxicity in uninfected CEM cells (XTT). The format is cell-based. The following applies: cytotoxicity in 50% of uninfected CEM cells; read-out: TC50 (the source's name). On the procedure:
(§1) Compound concentrations were 0.32, 1, 3.2, 10, 32, and 100 μM.

The nature of data set [5]: Cellular toxicity in uninfected CEM cells (XTT). The format is cell-based. To be noted: human, uninfected CEM cells (lymphocyte derived), cytotoxicity in 50% of uninfected CEM cells; read-out: TC50 (the source's name). On the procedure:
as §1

Where two headings read alike, the source gives them in different places.

Broadly, the IC50 is the concentration at which inhibition is half-maximal. As to `Cc1ccc(C(C)(C)C)c(Sc2c(O)cc(-c3ccccc3)oc2=O)c1`, the IC50 came to 28 nM in data set [1] (pH (4.7)) and 280 nM in data set [1] (pH (6.2)).
The corresponding values for `Cc1ccc(C(C)(C)C)c(SC2=C(O)CC(CCc3ccccc3)(c3ccccc3)OC2=O)c1` (centres unmarked) are 10 nM and 35 nM.
What is called EC50 is the concentration that produces a half-maximal response. Broadly, the Ki is the dissociation constant of the complex between target and ligand, obtained from inhibition or displacement. A word on the melting point: it is the temperature of the solid-liquid transition. As to `CCCN(C1=C(O)CC(CCc2ccc(O)cc2)(C(C)C)OC1=O)c1cccc(NS(=O)(=O)c2ccc(C(F)(F)F)cn2)c1` (centres unmarked) [Example 2, 5-Trifluoromethyl-pyridine-2-sulfonic acid [3-({4-hydroxy-6-[2-(4-hydroxy-phenyl)-ethyl]-6-isopropyl-2-oxo-5,6-dihydro-2H-pyran-3-yl}-propyl-amino)-phenyl]-amide], the melting point fell in the range of 107 to 110 °C. Further, the EC50 in data set [2] (read-out: Antiviral Efficacy EC50, CEM cells, 50% protection against HIV cytopathic effects) is 1000 nM. Moreover, the Ki in data set [3] (Inhibition of HIV Protease Ki) amounted to 0.083 nM. The CC50 in data set [4] amounted to 71000 nM.
`CC(C)C1(CCc2ccc(O)cc2)CC(O)=C(N(CCC#N)c2ccccc2)C(=O)O1` (centres unmarked) [Example 21, 3-({4-Hydroxy-6-[2-(4-hydroxy-phenyl)-ethyl]-6-isopropyl-2-oxo-5,6-dihydro-2H-pyran-3-yl}-phenyl-amino)-propionitrile]: the melting point fell in the range of 119 to 121 °C. Further, the EC50 in data set [2] (Human immunodeficiency virus 1, CCRF-CEM, read-out: Antiviral Efficacy EC50, CEM cells, 50% protection against HIV cytopathic effects) was determined as 2700 nM. Also, the Ki in data set [3] (Inhibition of HIV Protease Ki) was 1.6 nM. Also, in data set [5], the CC50 is 320000 nM.
As to `CCCN(C1=C(O)CC(CCc2ccccc2)(C(C)C)OC1=O)c1ccccc1` (centres unmarked) [drawing 7], the IC50 in data set [1] (pH (4.7)) and in data set [1] (pH (6.2)) was 4 nM each time.
Take “Pyridine-2-sulfonic acid [3-({4-hydroxy-6-[2-(4-hydroxy-phenyl)-ethyl]-6-isopropyl-2-oxo-5,6-dihydro-2H-pyran-3-yl}-propyl-amino)-phenyl]-amide [Example 14]”: the concentration giving a half-maximal response (EC50) in data set [2] (CEM cells, 50% protection against HIV cytopathic effects, read-out: Antiviral Efficacy EC50) was 1600 nM. Besides, in data set [3] (read-out: Inhibition of HIV Protease Ki), the inhibitory constant (Ki) amounted to 0.54 nM. For the same compound, in data set [4], the CC50 came out at 210000 nM.

The values are drawn from patent US6512006B1, “HIV protease inhibitors” (Warner-Lambert Company, priority 1999, dated 2003).
